Source: patent publication US11396524B2, “Hydrate crystal of 3′,3′-cGAMP” (Yamasa Corporation, priority 2018, dated 2022)

What was measured:
Assay type in all cases: physicochemical
[1] = Crystal moisture content by the Karl-Fischer method; details: for Moisture content after storage at a humidity of 43% for 1 day: stored at humidity 43% for 1 day
Experimental: In Example 1, the crystals of 3′,3′-cGAMP sodium salt were prepared. Here, the crystal moisture content immediately after drying was measured by the Karl-Fischer method. As a result, the moisture content was 7.9%. […] In addition, the crystals were stored at a humidity of 43% for 1 day so as to stabilize their moisture content. The moisture content was likewise measured.
The crystals of 3′,3′-cGAMP free acid as prepared in Example 2 were stored at a humidity of 43% for 1 day so as to stabilize their moisture content. Then, the crystal moisture content was measured by the Karl-Fischer method.

[2] = Stability test, crystals stored at 60° C.
Experimental: Meanwhile, the crystals were stored at 60° C. and subjected to a stability test.

[3] = Hygroscopicity test: standing 3 days in desiccator at 30° C. and 93% humidity, moisture content by the Karl-Fischer method; details: for Moisture content after standing / Moisture content before standing: Karl-Fischer method; for Moisture content after standing: after standing 3 days at 30° C., humidity 93% (saturated potassium nitrate desiccator); for Moisture content before standing: before standing at 30° C.; for Moisture content before standing / Δ Moisture content: humidity 93%; for Δ Moisture content: after minus before standing 3 days at 30° C.
Experimental: A hydrate crystal of 3′,3′-cGAMP according to the invention may be either a crystal of alkali metal salt or a crystal of free acid. Either is less hygroscopic than existing powder. Thus, each is easy to handle in various purposes and is thus useful as a pharmaceutical raw material or the like. Note that the wording “less hygroscopic” herein refers to the case where after (A) allowed to stand for 1 day under conditions at a temperature of 30° C. and a humidity of 43% and then (B) allowed to stand for 3 days under conditions at a temperature of 30° C. and a humidity of 93%, a substance of interest has a moisture content of 25% or less at the end point (B) and the difference in the moisture content between the end point (A) and the end point (B) is within ±5%.
The crystals obtained in the above Examples 1 and 2 as well as the lyophilized product obtained in the Reference Example were allowed to stand for 3 days in a desiccator filled with a saturated potassium nitrate solution and kept at a temperature of 30° C. and a humidity of 93%. The moisture content was compared between before and after the standing by the Karl-Fischer method.

Substance	Moisture content immediately after drying ([1]; immediately after drying) [%]	Moisture content after storage at a humidity of 43% for 1 day [1] [%]	Stability under high temperature conditions (decomposition of 3′,3′-cGAMP) [2]	Moisture content after standing ([3]; sodium salt) [%]	Moisture content before standing [3] [%]	Δ Moisture content ([3]; sodium salt)	Moisture content before standing ([3]; sodium salt) [%]	Moisture content after standing [3] [%]	Δ Moisture content [3] [%]
3′,3′-cGAMP sodium salt [Example 1]	7.9	18.1	not apparently decomposed	21.60	18.10	+3.50%	–	–	–
3′,3′-cGAMP sodium salt [Reference Example, reference compound]	–	–	–	36.01	–	+23.07%	12.94	–	–
3′,3′-cGAMP free acid [Example 2]	–	24.7	not apparently decomposed	–	24.71	–	–	23.09	−1.62
